From patent US20260167623A1 (NIKANG THERAPEUTICS, INC., priority 2022, published 2026) come the findings set out here.

pIC50: −log10 of the molar value.

The experiment deals with T1, CDK2 (Homo sapiens, UniProt P24941).
T1 construct: High-Throughput Measurement of Cellular Endogenous CDK2; endogenous in cells; host or cells: OVCAR3
In words: Inhibition of CDK2: phospho-Rb (S807/811) HTRF measurement in OVCAR3 cells, 24 h. It counts as cell-based. The settings on record: 24 h compound treatment, read-out: pRB_OVCAR3_24h. An outline of the steps: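 OVCAR3 cells, seeded overnight, were exposed to compounds at 0.3 to 10,000 nM for 24 h, then lysed. Rb S807/811 phosphorylation read by HTRF (665/620 nm ratio) after 4 h detection at room temperature; data normalized to DMSO and IC50 from four-parameter logistic fit.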

With `Cn1nc(N2CCC(=O)NC2=O)c2ccc(N3C4CCC3CN(CC3CCN(c5cccc(S(=O)(=O)N6CCC(Nc7ncc(Cl)cn7)CC6)c5)CC3)C4)cc21` [Example 104, 1-(6-(3-((1-(3-((4-((5-chloropyrimidin-2-yl)amino)piperidin-1-yl)sulfonyl)phenyl)-piperidin-4-yl)methyl)-3,8-diaza-bicyclo[3.2.1]octan-8-yl)-1-methyl-1H-indazol-3-yl)dihydropyrimidine-2,4(1H,3H)-dione], the pIC50 was below 5.60. For `O=C1CCC(N2Cc3cc(N4CCN(CC5CCN(c6cccc(S(=O)(=O)N7CCC(Nc8ncc(OC(F)F)cn8)CC7)c6)CC5)CC4)c(F)cc3C2=O)C(=O)N1` (stereo not drawn) [Example 106, 3-(5-(4-((1-(3-((4-((5-(difluoromethoxy)-pyrimidin-2-yl)amino)piperidin-1-yl)sulfonyl)phenyl)piperidin-4-yl)methyl)-piperazin-1-yl)-6-fluoro-1-oxoisoindolin-2-yl)piperidine-2,6-dione] the value was 6.30 to 7.00; for `O=C1CCN(c2ccc(N3CCN(CC4CCN(c5cccc(S(=O)(=O)N6CCC(Nc7ncc(Cl)cn7)CC6)c5)CC4)CC3)cc2)C(=O)N1` [Example 109, 1-(4-(4-((1-(3-((4-((5-chloropyrimidin-2-yl)amino)piperidin-1-yl)sulfonyl)phenyl)-piperidin-4-yl)methyl)piperazin-1-yl)phenyl) dihydropyrimidine-2,4(1H,3H)-dione], 6.30 to 7.00. Turning to `Cn1nc(N2CCC(=O)NC2=O)c2cc(F)c(N3CCN(CC4CCN(c5cccc(S(=O)(=O)N6CCC(Nc7ncc(C(F)(F)F)cn7)CC6)c5)CC4)CC3)cc21` [Example 110, 1-(5-fluoro-1-methyl-6-(4-((1-(3-((4-((5-(trifluoromethyl)pyrimidin-2-yl)amino)-piperidin-1 - yl)sulfonyl)phenyl)piperidin-4-yl)methyl)piperazin-1-yl)-1H-indazol-3-yl)dihydropyrimidine-2,4(1H,3H)-dione], the pIC50 is 6.30 to 7.00. For the compound `Cn1nc(N2CCC(=O)NC2=O)c2cc(F)c(N3CCN(CC4CCN(c5cccc(S(=O)(=O)N6CCC(Nc7ncc(Cl)cn7)CC6)c5)CC4)CC3)cc21` [Example 111, 1-(6-(4-((1-(3-((4-((5-chloropyrimidin-2-yl)amino)piperidin-1-yl)sulfonyl)phenyl)-piperidin-4-yl)methyl)piperazin-1-yl)-5-fluoro-1-methyl-1H-indazol-3-yl)dihydropyrimidine-2,4(1H,3H)-dione], the pIC50 was 5.60 to 6.30. The figure for `Cn1nc(N2CCC(=O)NC2=O)c2ccc(C3CCN(CC4CCN(c5cccc(S(=O)(=O)N6CCC(Nc7ncc(OC(F)F)cn7)CC6)c5)CC4)CC3)cc21` [Example 112, 1-(6-(1-((1-(3-((4-((5-(difluoromethoxy)-pyrimidin-2-yl)amino)piperidin-1-yl)sulfonyl)phenyl)piperidin-4-yl)methyl)piperidin-4-yl)-1-methyl-1H-indazol-3-yl)dihydropyrimidine-2,4(1H,3H)-dione] is 7.00 to 9.00; for `O=C1CCN(c2ccc(N3CCN(CC4CCN(c5cccc(S(=O)(=O)N6CCC(Nc7ncc(C(F)(F)F)cn7)CC6)c5)CC4)CC3)cc2)C(=O)N1` [Example 113, 1-(4-(4-((1-(3-((4-((5-(trifluoromethyl)-pyrimidin-2-yl)amino)piperidin-1-yl)sulfonyl)phenyl)piperidin-4-yl)methyl)piperazin-1-yl)phenyl)-dihydropyrimidine-2,4(1H,3H)-dione] it is 6.30 to 7.00. The figure for `Cn1nc(N2CCC(=O)NC2=O)c2ccc(N3CC4CCC(C3)N4CC3CCN(c4cccc(S(=O)(=O)N5CCC(Nc6ncc(Cl)cn6)CC5)c4)CC3)cc21` [Example 114, 1-(6-(8-((1-(3-((4-((5-chloropyrimidin-2-yl)amino)piperidin-1-yl)sulfonyl)phenyl)-piperidin-4-yl)methyl)-3,8-diaza-bicyclo[3.2.1]octan-3-yl)-1-methyl-1H-indazol-3-yl)dihydropyrimidine-2,4(1H,3H)-dione] is 6.30 to 7.00; for `C[C@H]1CN(CC2CCN(c3cccc(S(=O)(=O)N4CCC(Nc5ncc(Cl)cn5)CC4)c3)CC2)CCN1c1ccc2c(N3CCC(=O)NC3=O)nn(C)c2c1` [Example 117, (S)-1-(6-(4-((1-(3-((4-((5-chloropyrimidin-2-yl)amino)piperidin-1-yl)sulfonyl)phenyl)-piperidin-4-yl)methyl)-2-methylpiperazin-1-yl)-1-methyl-1H-indazol-3-yl)dihydro-pyrimidine-2,4(1H,3H)-dione] it is 6.30 to 7.00; for `Cn1nc(N2CCC(=O)NC2=O)c2ccc(C3CN(CC4CCN(c5cccc(S(=O)(=O)N6CCC(Nc7ncc(C(F)(F)F)cn7)CC6)c5)CC4)C3)cc21` [Example 118, 1-(1-methyl-6-(1-((1-(3-((4-((5-(trifluoro-methyl)pyrimidin-2-yl)amino)piperidin-1-yl)sulfonyl)phenyl)piperidin-4-yl)methyl)-azetidin-3-yl)-1H-indazol-3-yl)dihydropyrimidine-2,4(1H,3H)-dione] it is 7.00 to 9.00. For `O=C1CCC(N2Cc3cc(C4CCN(CC5CCN(c6cccc(S(=O)(=O)N7CCC(Nc8ncc(Cl)cn8)CC7)c6)CC5)CC4)c(F)cc3C2=O)C(=O)N1` (stereo not drawn) [Example 120, 3-(5-(1-((1-(3-((4-((5-chloropyrimidin-2-yl)amino)piperidin-1-yl)sulfonyl)phenyl)-piperidin-4-yl)methyl)piperidin-4-yl)-6-fluoro-1-oxoisoindolin-2-yl)piperidine-2,6-dione], the pIC50 is 6.30 to 7.00. In the case of `Cn1c(=O)n(C2CCC(=O)NC2=O)c2cccc(C3CCN(CC4CCN(c5cccc(S(=O)(=O)N6CCC(Nc7ncc(OC(F)F)cn7)CC6)c5)CC4)CC3)c21` (stereo not drawn) [Example 121, 3-(4-(1-((1-(3-((4-((5-(difluoromethoxy)-pyrimidin-2-yl)amino)piperidin-1-yl)sulfonyl)phenyl)piperidin-4-yl)methyl)-piperidin-4-yl)-3-methyl-2-oxo-2,3-dihydro-1H-benzo[d]imidazol-1-yl)piperidine-2,6-dione], the pIC50 is 7.00 to 9.00. With `Cn1nc(N2CCC(=O)NC2=O)c2ccc(C3CCN(Cc4ccc(-c5cccc(S(=O)(=O)N6CCC(Nc7ncc(Cl)cn7)CC6)c5)cc4)CC3)cc21` [Example 122], the pIC50 was 7.00 to 9.00. `Cn1nc(N2CCC(=O)NC2=O)c2ccc(C3CCN(CCOc4cccc(S(=O)(=O)N5CCC(Nc6ncc(C(F)(F)F)cn6)CC5)c4)CC3)cc21` [Example 123, 1-(1-methyl-6-(1-(2-(3-((4-((5-(trifluoro-methyl)pyrimidin-2-yl)amino)piperidin-1-yl)sulfonyl)phenoxy)ethyl)piperidin-4-yl)-1H-indazol-3-yl)dihydropyrimidine-2,4(1H,3H)-dione]: the pIC50 was 7.00 to 9.00. `Cn1nc(N2CCC(=O)NC2=O)c2ccc(C3CCN(CCOc4cccc(S(=O)(=O)N5CCC(Nc6ncc(Cl)cn6)CC5)c4)CC3)cc21` [Example 124, 1-(6-(1-(2-(3-((4-((5-chloropyrimidin-2-yl)amino)piperidin-1-yl)sulfonyl)phenoxy)-ethyl)piperidin-4-yl)-1-methyl-1H-indazol-3-yl)dihydropyrimidine-2,4(1H,3H)-dione]: the pIC50 is 7.00 to 9.00. In the case of `Cn1nc(N2CCC(=O)NC2=O)c2ccc(N3CC4CC(C3)N4CC3CCN(c4cccc(S(=O)(=O)N5CCC(Nc6ncc(Cl)cn6)CC5)c4)CC3)cc21` [Example 125, 1-(6-(6-((1-(3-((4-((5-chloropyrimidin-2-yl)amino)piperidin-1-yl)sulfonyl)phenyl)-piperidin-4-yl)methyl)-3,6-diazabicyclo-[3.1.1]heptan-3-yl)-1-methyl-1H-indazol-3-yl)dihydropyrimidine-2,4(1H,3H)-dione], the pIC50 is 5.60 to 6.30. Turning to `Cn1nc(N2CCC(=O)NC2=O)c2ccc(N3CC4CC(C3)N4CC3CCN(c4cccc(S(=O)(=O)N5CCC(Nc6ncc(C(F)(F)F)cn6)CC5)c4)CC3)cc21` [Example 126, 1-(1-methyl-6-(6-((1-(3-((4-((5-(trifluoro-methyl)pyrimidin-2-yl)amino)piperidin-1-yl)sulfonyl)phenyl)piperidin-4-yl)methyl)-3,6-diazabicyclo[3.1.1]heptan-3-yl)-1H-indazol-3-yl)dihydropyrimidine-2,4(1H,3H)-dione], the pIC50 is 5.60 to 6.30. As for `C[C@@H]1CN(CC2CCN(c3cccc(S(=O)(=O)N4CCC(Nc5ncc(Cl)cn5)CC4)c3)CC2)C[C@H](C)N1c1ccc2c(N3CCC(=O)NC3=O)nn(C)c2c1` [Example 127, 1-(6-((2S,6R)-4-((1-(3-((4-((5-chloro-pyrimidin-2-yl)amino)piperidin-1-yl)-sulfonyl)phenyl)piperidin-4-yl)methyl)-2,6-dimethylpiperazin-1-yl)-1-methyl-1H-indazol-3-yl)dihydropyrimidine-2,4(1H,3H)-dione], the pIC50 was 7.00 to 9.00. The figure for `Cn1c(=O)n(C2CCC(=O)NC2=O)c2cccc(C3CCN(Cc4cccc(S(=O)(=O)N5CCC(Nc6ncc(OC(F)F)cn6)CC5)c4)CC3)c21` (stereo not drawn) [Example 128, 3-(4-(1-(3-((4-((5-(difluoromethoxy)-pyrimidin-2-yl)amino)piperidin-1-yl)sulfonyl)benzyl)piperidin-4-yl)-3-methyl-2-oxo-2,3-dihydro-1H-benzo[d]imidazol-1-yl)piperidine-2,6-dione] is 7.00 to 9.00. With `Cn1nc(N2CCC(=O)NC2=O)c2ccc(C3CCN(CC4CN(c5cccc(S(=O)(=O)N6CCC(Nc7ncc(Cl)cn7)CC6)c5)C4)CC3)cc21` [Example 129, 1-(6-(1-((1-(3-((4-((5-chloropyrimidin-2-yl)amino)piperidin-1-yl)sulfonyl)phenyl)-azetidin-3-yl)methyl)piperidin-4-yl)-1-methyl-1H-indazol-3-yl)dihydropyrimidine-2,4(1H,3H)-dione], the pIC50 is 7.00 to 9.00.

For `Cn1nc(N2CCC(=O)NC2=O)c2ccc(C3CCN(Cc4cncc(S(=O)(=O)N5CCC(Nc6ncc(C(F)(F)F)cn6)CC5)c4)CC3)cc21` [Example 130, 1-(1-methyl-6-(1-((5-((4-((5-(trifluoro-methyl)pyrimidin-2-yl)amino)piperidin-1-yl)sulfonyl)pyridin-3-yl)methyl)piperidin-4-yl)-1H-indazol-3-yl)dihydropyrimidine-2,4(1H,3H)-dione], the pIC50 was 7.00 to 9.00.
